As usually defined, the IC50 is the point on the concentration scale where inhibition reaches its midpoint.

IC50 data for 11 molecules are collected here from patent US10047081B2, “BACE1 inhibitors” (Hoffmann-La Roche Inc., priority 2015, dated 2018).

One assay addresses T1, BACE1 (Homo sapiens, UniProt P56817).
T1 construct: endogenous in cells; host or cells: HEK293 APP cells
Kind of assay: Cellular Aβ-lowering assay (Abeta 40 AlphaLISA, HEK293 APP cells). Format: cell-based. Particulars: 18-20 hrs incubation, Aβ 40 in culture supernatant, read-out: BACE1 cell act. Aβ40 IC50. The procedure: Cellular Aβ-Lowering Assay:
The Abeta 40 AlphaLISA Assay can be used. The HEK293 APP cells were seeded in 96 well Microtiter plates in cell culture medium (Iscove's, plus 10% (v/v) fetal bovine serum, penicillin/streptomycin) to about 80% confluency and the compounds were added at a 3× concentration in ⅓ volume of culture medium (final DMSO concentration was kept at 1% v/v). After 18-20 hrs incubation at 37° C. and 5% CO2 in a humidified incubator, the culture supernatants were harvested for the determination of Aβ 40 concentrations using Perkin-Elmer Human Amyloid beta 1-40 (high specificity) Kit (Cat#AL275C).
In a Perkin-Elmer White Optiplate-384 (Cat#6007290), 2 ul culture supernatants were combined with 2 μl of a 10× AlphaLISA Anti-hAβAcceptor beads + Biotinylated Antibody Anti-Aβ 1-40 Mix (50 μg/mL/5 nM). After 1 hour room temperature incubation, 16 μl of a 1.25× preparation of Streptavidin (SA) Donor beads (25 μg/mL) were added and incubated for 30 minutes in the Dark. Light Emission at 615 nm was then recorded using EnVision-Alpha Reader. Levels of Aβ 40 in the culture supernatants were calculated as percentage of maximum signal (cells treated with 1% DMSO without inhibitor). The IC50 values were calculated using the Excel XLfit software.

In the next assay the target is T2, CYP2C9 (Homo sapiens, UniProt P11712).
T2 construct: 0.2 mg/ml pooled human liver microsomes; from tissue; host or cells: pooled human liver microsomes
T2 sequence (P11712 whole entry): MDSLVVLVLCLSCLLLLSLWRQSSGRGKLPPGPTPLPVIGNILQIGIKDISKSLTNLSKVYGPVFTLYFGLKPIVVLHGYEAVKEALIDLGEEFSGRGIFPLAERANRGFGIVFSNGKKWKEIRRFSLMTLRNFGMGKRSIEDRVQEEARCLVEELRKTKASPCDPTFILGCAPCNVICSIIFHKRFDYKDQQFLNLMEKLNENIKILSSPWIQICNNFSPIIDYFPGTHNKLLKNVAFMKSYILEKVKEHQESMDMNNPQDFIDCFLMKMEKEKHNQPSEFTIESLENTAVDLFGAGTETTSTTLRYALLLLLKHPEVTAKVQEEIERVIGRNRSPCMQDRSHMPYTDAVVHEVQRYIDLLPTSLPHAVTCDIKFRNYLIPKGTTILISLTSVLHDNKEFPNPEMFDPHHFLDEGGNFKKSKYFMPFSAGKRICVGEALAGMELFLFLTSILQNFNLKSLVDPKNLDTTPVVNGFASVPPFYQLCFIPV
Put plainly: CYP inhibition assay, human liver microsomes. The assay is classed as in vitro ADME. As for the experimental part:
(§1) Inhibition of cytochromes P450 (CYPs) 2C9, 2D6 and 3A4 was assessed using human liver microsomes and CYP-selective substrate metabolism reactions. 50 μl incubations were made up containing (finally) 0.2 mg/ml pooled human liver microsomes, 5 μM substrate (diclofenac for CYP2C9 [4′hydroxylase], dextromethorphan for CYP2D6 [O-demethylase] or midazolam for CYP3A4 [1′hydroxylase]), 0.25 μL DMSO containing test inhibitor and NADPH regenerating system. Test inhibitor concentrations of 50, 16.7, 5.6, 1.9, 0.6 and 0.2 μM were assessed in singlicate. Incubations were prewarmed to 37° C. for 10 minutes before initiation by addition of NADPH regenerating system. Incubations were quenched after 5 minutes (20 minutes for dextromethorphan) by addition of 50 μl cold acetonitrile containing 20 ng/ml 4-OH-diclofenac-13C6, 20 ng/mL dextrorphan-D3 and 20 ng/mL 1-OH-midazolam-D4. Quenched incubates were stored at −20° C. for at least 1 hour before centrifugation (20,000× g, 20 minutes). Supernatants were removed and diluted 1:1 with water prior to analysis using a RapidFire sample injector system and API4000 mass spectrometer. Peak areas for substrate, metabolite and stable-labelled metabolite standard were determined using MS/MS. The peak area ratios between the metabolite generated by the enzymatic reaction and the internal standard were used in subsequent calculations. The percentage of (DMSO) control activity was calculated for each incubate and IC50 values estimated by non-linear regression. Sulfaphenazole, quinidine or ketoconazole were tested in each CYP2C9, CYP2D6 or CYP3A4 inhibition experiment, respectively, to ensure assay sensitivity and reproducibility. (Validated assays for human cytochrome P450 activities, R. L. Walsky and R. S. Obach, Drug Metabolism and Disposition 32: 647-660, 2004. and S. Fowler and H. Zhang, The AAPS Journal, Vol. 10, No. 2, 410-424, 2008)

Another assay deals with T3, CYP3A4 (Homo sapiens, UniProt P08684).
T3 construct: 0.2 mg/ml pooled human liver microsomes; from tissue; host or cells: pooled human liver microsomes
T3 sequence (P08684 whole entry): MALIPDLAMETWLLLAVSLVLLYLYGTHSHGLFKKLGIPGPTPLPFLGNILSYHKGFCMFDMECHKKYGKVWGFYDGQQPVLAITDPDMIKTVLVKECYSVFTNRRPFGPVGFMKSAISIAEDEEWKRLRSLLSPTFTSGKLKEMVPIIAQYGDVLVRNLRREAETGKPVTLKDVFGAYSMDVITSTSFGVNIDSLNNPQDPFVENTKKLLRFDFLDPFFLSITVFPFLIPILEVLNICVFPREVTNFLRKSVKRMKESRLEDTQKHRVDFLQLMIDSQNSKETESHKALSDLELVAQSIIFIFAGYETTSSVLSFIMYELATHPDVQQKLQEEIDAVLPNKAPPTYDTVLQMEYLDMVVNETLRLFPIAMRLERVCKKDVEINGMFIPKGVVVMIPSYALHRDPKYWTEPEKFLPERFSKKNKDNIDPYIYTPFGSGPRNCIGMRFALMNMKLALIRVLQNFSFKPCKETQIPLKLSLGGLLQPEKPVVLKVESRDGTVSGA
Kind of assay: CYP inhibition assay, human liver microsomes. The assay is classed as in vitro ADME. The procedure: as §1
On the technique in general: Microsomes from liver hold many membrane-bound enzymes, among them those of drug oxidation.

The target in another assay is T4, CYP2D6 (Homo sapiens, UniProt P10635).
T4 construct: 0.2 mg/ml pooled human liver microsomes; from tissue; host or cells: pooled human liver microsomes
T4 sequence (P10635 whole entry): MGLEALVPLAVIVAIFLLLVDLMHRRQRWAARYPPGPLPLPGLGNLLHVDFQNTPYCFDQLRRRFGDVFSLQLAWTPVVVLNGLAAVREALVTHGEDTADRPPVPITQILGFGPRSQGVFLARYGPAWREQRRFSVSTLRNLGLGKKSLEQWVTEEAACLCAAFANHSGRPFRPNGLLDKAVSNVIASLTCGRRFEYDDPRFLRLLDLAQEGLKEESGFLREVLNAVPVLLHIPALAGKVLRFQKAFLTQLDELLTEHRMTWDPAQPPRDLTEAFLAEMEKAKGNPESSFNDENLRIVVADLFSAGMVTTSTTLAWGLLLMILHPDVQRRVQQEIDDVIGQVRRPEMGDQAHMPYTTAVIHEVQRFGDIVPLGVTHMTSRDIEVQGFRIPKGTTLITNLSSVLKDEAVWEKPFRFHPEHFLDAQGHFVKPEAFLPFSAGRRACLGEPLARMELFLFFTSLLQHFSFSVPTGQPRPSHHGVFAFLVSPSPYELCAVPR
Put plainly: CYP inhibition assay, human liver microsomes. The assay is classed as in vitro ADME. As for the experimental part:
as §1

Assay [1] has as its target T5, recombinant human cathepsin E (Homo sapiens, UniProt P14091).
T5 construct: purchased R&D Systems
T5 sequence (P14091 54-396): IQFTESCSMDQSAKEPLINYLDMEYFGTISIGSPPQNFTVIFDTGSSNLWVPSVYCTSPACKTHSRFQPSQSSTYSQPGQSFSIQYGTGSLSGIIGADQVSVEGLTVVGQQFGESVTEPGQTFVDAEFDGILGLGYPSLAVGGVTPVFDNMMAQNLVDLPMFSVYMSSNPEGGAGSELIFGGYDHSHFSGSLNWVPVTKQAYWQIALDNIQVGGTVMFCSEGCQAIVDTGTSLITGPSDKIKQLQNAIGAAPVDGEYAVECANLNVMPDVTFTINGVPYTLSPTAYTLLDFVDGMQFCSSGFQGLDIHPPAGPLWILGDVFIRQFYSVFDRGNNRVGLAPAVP
Kind of assay: Cathepsin E fluorescent substrate kinetic assay. Format: biochemical. The note with it: pH 4.5, substrate MR121-CKLVFFAEDW
An excerpt:
(§2) Cathepsin D and Cathepsin E Fluorescent Substrate Kinetic Assays
(§3) The MR121 fluorescence assays described below are based on the fact that MR121 forms a non-fluorescent ground state complex with tryptophan. In solution this formation occurs at millimolar concentrations of tryptophan. The mechanism can be used to design a generic biochemical assay for proteases. A substrate peptide is labeled at the N-terminus with tryptophan and at the C-terminus with the fluorophore MR121 (for cathepsin D the 10 amino acid peptide WTSVLMAAPC-MR121 was used; for cathepsin E, MR121-CKLVFFAEDW was used). In absence of protease activity, the substrates remain intact and the MR121 fluorescence is reduced by the high local Trp-concentration. If the substrates are cleaved by the enzymes the MR121 fluorescence is recovered.
(§4) The fluorescent substrate cathepsin D and cathepsin E kinetic assays were performed at room temperature in 384-well microtiter plates (black with clear flat bottom, non-binding surface plates from Corning) in a final volume of 51 μl. The test compounds were serially diluted in DMSO (15 concentrations, ⅓ dilution steps) and 1 μl of diluted compounds were mixed for 10 min with 40 μl of cathepsin D (from human liver, Calbiochem) diluted in assay buffer (100 mM sodium acetate, 0.05% BSA, pH 5.5; final concentration:200 nM) or with 40 μl of recombinant human cathepsin E (R&D Systems) diluted in assay buffer (100 mM sodium acetate, 0.05% BSA, pH 4.5; final concentration:0.01 nM). After addition of 10 μl of the cathepsin D substrate WTSVLMAAPC-MR121 diluted in cathepsin D assay buffer (final concentration:300 nM) or 10 μl of the cathepsin E substrate MR121-CKLVFFAEDW diluted in cathepsin E assay buffer (final concentration:300 nM), the plates were strongly shaken for 2 minutes. The enzymatic reaction was followed in a plate: vision reader (Perkin Elmer) (excitation wavelength:630 nm; emission:695 nm) for at least 30 minutes in a kinetic measurement detecting an increase of MR121 fluorescence during the reaction time. The slope in the linear range of the kinetic was calculated and the IC50 of the test compounds were determined using a four parameter equation for curve fitting.

For assay [2], the target named is T6, cathepsin D (from human liver) (Homo sapiens, UniProt P07339).
T6 construct: cathepsin D (from human liver, Calbiochem) diluted in assay buffer; purchased Calbiochem; host or cells: human liver
T6 sequence (P07339 65-162 limits assumed): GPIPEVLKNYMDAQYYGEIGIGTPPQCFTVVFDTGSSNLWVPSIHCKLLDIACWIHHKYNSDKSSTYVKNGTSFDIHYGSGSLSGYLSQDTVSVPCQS
T6 sequence (P07339 169-412 limits assumed): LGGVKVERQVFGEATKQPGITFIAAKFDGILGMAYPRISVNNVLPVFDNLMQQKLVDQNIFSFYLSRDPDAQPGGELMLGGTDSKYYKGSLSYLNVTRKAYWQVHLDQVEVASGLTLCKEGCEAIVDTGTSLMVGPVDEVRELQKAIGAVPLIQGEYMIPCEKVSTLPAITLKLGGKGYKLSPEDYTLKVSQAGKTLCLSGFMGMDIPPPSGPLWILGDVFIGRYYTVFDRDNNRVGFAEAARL
Put plainly: Cathepsin D fluorescent substrate kinetic assay. Format: biochemical. The note with it: pH 5.5, substrate WTSVLMAAPC-MR121.
Text: as §2, §3, §4

T1 sequence (P56817 46-501): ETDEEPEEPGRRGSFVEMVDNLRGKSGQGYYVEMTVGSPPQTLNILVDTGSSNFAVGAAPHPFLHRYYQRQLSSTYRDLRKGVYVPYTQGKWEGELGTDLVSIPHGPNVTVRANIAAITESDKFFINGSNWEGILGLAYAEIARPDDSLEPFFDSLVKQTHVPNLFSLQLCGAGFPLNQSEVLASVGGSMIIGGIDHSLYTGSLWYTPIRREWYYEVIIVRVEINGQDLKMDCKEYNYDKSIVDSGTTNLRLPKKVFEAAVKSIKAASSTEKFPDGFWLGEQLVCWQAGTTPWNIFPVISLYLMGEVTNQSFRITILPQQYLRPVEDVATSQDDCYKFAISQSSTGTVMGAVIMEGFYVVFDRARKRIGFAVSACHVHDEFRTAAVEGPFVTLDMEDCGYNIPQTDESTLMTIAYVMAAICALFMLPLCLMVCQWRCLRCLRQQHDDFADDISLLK

On to `CN=[S@@]1(=O)C[C@@](C)(c2cc(-c3cc(-c4ncc(Cl)cn4)no3)ccc2F)N=C(N)C12CCCC2` [Example 28, (6R,8R)-10-amino-8-(5-(3-(5-chloropyrimidin-2-yl)isoxazol-5-yl)-2-fluorophenyl)-8-methyl-6-(methylimino)-6-thia-9-azaspiro[4.5]dec-9-ene 6-oxide 2,2,2-trifluoroacetate], for which the half-inhibitory concentration (IC50) at BACE1 was 7 nM; on CYP2C9, more than 10000 nM; at CYP3A4, more than 10000 nM; against CYP2D6, more than 10000 nM; in assay [1], 7000 nM; in assay [2], 16000 nM.

For `CN=[S@@]1(=O)C[C@@](C)(c2cc(-c3cc(-c4cnc(OCC(F)(F)F)cn4)no3)ccc2F)N=C(N)C1(C)C` [Example 21, (1R,3R)-5-amino-3-(2-fluoro-5-(3-(5-(2,2,2-trifluoroethoxy)pyrazin-2-yl)isoxazol-5-yl)phenyl)-3,6,6-trimethyl-1-(methylimino)-3,6-dihydro-2H-1,4-thiazine 1-oxide 2,2,2-trifluoroacetate], at BACE1, the IC50 was 9 nM. Consider `CN=[S@@]1(=O)C[C@@](CF)(c2cc(-c3cc(-c4cnc(OCC(F)F)cn4)no3)ccc2F)N=C(N)C1(C)C` [Example 4, (1R,3S)-5-amino-3-(5-(3-(5-(2,2-difluoroethoxy)pyrazin-2-yl)isoxazol-5-yl)-2-fluorophenyl)-3-(fluoromethyl)-6,6-dimethyl-1-(methylimino)-3,6-dihydro-2H-1,4-thiazine 1-oxide 2,2,2-trifluoroacetate], for which the 50% inhibitory concentration (IC50) on BACE1 was found to be 111 nM. As to `CN=[S@]1(=O)C[C@@](C)(c2cc(-c3cc(-c4cnc(OCC(F)F)cn4)no3)ccc2F)N=C(N)C1(C)C` [Example 11, (1S,3R)-5-amino-3-(5-(3-(5-(2,2-difluoroethoxy)pyrazin-2-yl)isoxazol-5-yl)-2-fluorophenyl)-3,6,6-trimethyl-1-(methylimino)-3,6-dihydro-2H-1,4-thiazine 1-oxide 2,2,2-trifluoroacetate], the 50% inhibitory concentration (IC50) at BACE1 turned out to be 51 nM.

In the case of `CN=[S@@]1(=O)C[C@@](C)(c2cc(-c3cn(-c4ccc(C#N)cn4)nn3)ccc2F)N=C(N)C1(C)C` [Example 10, 6-(4-(3-((1R,3R)-5-amino-3,6,6-trimethyl-1-(methylimino)-1-oxido-3,6-dihydro-2H-1,4-thiazin-3-yl)-4-fluorophenyl)-1H-1,2,3-triazol-1-yl)nicotinonitrile 2,2,2-trifluoroacetate], at BACE1, the IC50 amounted to 20 nM. On the same count and under the same terms, the figure for `CC1(C)C(N)=N[C@](C)(c2cc(-c3cc(-c4ncc(Cl)cn4)no3)ccc2F)C[S@]1(=O)=NCC(F)(F)F` [Example 40, (1R,3R)-5-amino-3-(5-(3-(5-chloropyrimidin-2-yl)isoxazol-5-yl)-2-fluorophenyl)-3,6,6-trimethyl-1-((2,2,2-trifluoroethyl)imino)-3,6-dihydro-2H-1,4-thiazine 1-oxide 2,2,2-trifluoroacetate] is 37 nM; for `CC1(C)C(N)=N[C@](C)(c2cc(-c3cc(-c4ncc(Cl)cn4)no3)ccc2F)C[S@]1(=O)=NC1CC1` [Example 34, (1R,3R)-3-[5-[3-(5-chloropyrimidin-2-yl)isoxazol-5-yl]-2-fluoro-phenyl]-1-cyclopropylimino-3,6,6-trimethyl-1-oxo-2H-1,4-thiazin-5-amine 2,2,2-trifluoroacetate] it is 13 nM; for `[2H]C([2H])([2H])N=[S@@]1(=O)C[C@@](C)(c2cc(-c3cc(-c4ncc(OCC(F)(F)C(F)F)cn4)no3)ccc2F)N=C(N)C1(C)C` [Example 25, (1R,3R)-3-[2-fluoro-5-[3-[5-(2,2,3,3-tetrafluoropropoxy)pyrimidin-2-yl]isoxazol-5-yl]phenyl]-3,6,6-trimethyl-1-oxo-1-(trideuteriomethylimino)-2H-1,4-thiazin-5-amine 2,2,2-trifluoroacetate] it is 13 nM. Regarding `CN=[S@@]1(=O)C[C@@](CF)(c2cc(-c3cc(-c4ncc(Br)cc4C)no3)ccc2F)N=C(N)C1(C)C` [Example 15, (1R,3S)-5-amino-3-(5-(3-(5-bromo-3-methylpyridin-2-yl)isoxazol-5-yl)-2-fluorophenyl)-3-(fluoromethyl)-6,6-dimethyl-1-(methylimino)-3,6-dihydro-2H-1,4-thiazine 1-oxide 2,2,2-trifluoroacetate], the half-inhibitory concentration (IC50) on BACE1 was 344 nM. Same read-out and setting: the figure for `CN=[S@@]1(=O)C[C@@](C)(c2cc(-c3cc(-c4cnc(OC)cn4)no3)ccc2F)N=C(N)C12CCCC2` [Example 27, (6R,8R)-10-amino-8-(2-fluoro-5-(3-(5-methoxypyrazin-2-yl)isoxazol-5-yl)phenyl)-8-methyl-6-(methylimino)-6-thia-9-azaspiro[4.5]dec-9-ene 6-oxide 2,2,2-trifluoroacetate] is 139 nM. Regarding `COc1cnc(-c2cc(-c3ccc(F)c([C@]4(C)C[S@](=O)(=NC5CC5)C(C)(C)C(N)=N4)c3)on2)cn1` [Example 33, (1R,3R)-5-amino-1-(cyclopropylimino)-3-(2-fluoro-5-(3-(5-methoxypyrazin-2-yl)isoxazol-5-yl)phenyl)-3,6,6-trimethyl-3,6-dihydro-2H-1,4-thiazine 1-oxide], at BACE1, the IC50 is 92 nM.
